Assay results as given in US20090105266A1, “Organic compounds” (priority 2007, published 2009).

Target: T1, mGluR5 (Homo sapiens, UniProt P41594)
T1 construct: expressed in transfected cells
Test: inhibition of the glutamate (agonist) induced elevation of the inositol phosphate turnover
Assay type: cell-based
Settings: inhibition of glutamate induced elevation of inositol phosphate turnover at 0.1 μM
Excerpt: This can be determined in vitro for example at recombinant human metabotropic glutamate receptors, especially PLC-coupled subtypes thereof such as mGluR5, using different procedures like, for example, measurement of the inhibition of the agonist induced elevation of intracellular Ca^2+ concentration in accordance with L. P. Daggett et al., Neuropharm. Vol. 34, pages 871-886 (1995), P. J. Flor et al., J. Neurochem. Vol. 67, pages 58-63 (1996) or by determination to what extent the agonist induced elevation of the inositol phosphate turnover is inhibited as described by T. Knoepfel et al., Eur. J. Pharmacol. Vol. 288, pages 389-392 (1994), L. P. Daggett et al., Neuropharm. Vol. 67, pages 58-63 (1996) and references cited therein. Isolation and expression of human mGluR subtypes are described in U.S. Pat. No. 5,521,297. Selected agents of the invention show IC50 values for the inhibition of the agonist (e.g. glutamate or quisqualate) induced elevation of intracellular Ca2+ concentration or the agonist (e.g. glutamate or quisqualate) induced inositol phosphate turnover, measured in recombinant cells expressing hmGluR^5a of about 0.1 nM to about 50 μM.
Activity of compounds of the present invention was examined by determination to what extent the agonist induced elevation of the inositol phosphate turnover is inhibited as described by T. Knoepfel et al., Eur. J. Pharmacol. Vol. 288, pages 389-392 (1994), L. P. Daggett et al., Neuropharm. Vol. 67, pages 58-63 (1996) and references cited therein.
The table below represents percentages of inhibition of the glutamate induced elevation of the inositol phosphate turnover at a concentration of 0.1 μM.

T1 sequence (P41594 21-1180 isoform P41594-2 limits assumed): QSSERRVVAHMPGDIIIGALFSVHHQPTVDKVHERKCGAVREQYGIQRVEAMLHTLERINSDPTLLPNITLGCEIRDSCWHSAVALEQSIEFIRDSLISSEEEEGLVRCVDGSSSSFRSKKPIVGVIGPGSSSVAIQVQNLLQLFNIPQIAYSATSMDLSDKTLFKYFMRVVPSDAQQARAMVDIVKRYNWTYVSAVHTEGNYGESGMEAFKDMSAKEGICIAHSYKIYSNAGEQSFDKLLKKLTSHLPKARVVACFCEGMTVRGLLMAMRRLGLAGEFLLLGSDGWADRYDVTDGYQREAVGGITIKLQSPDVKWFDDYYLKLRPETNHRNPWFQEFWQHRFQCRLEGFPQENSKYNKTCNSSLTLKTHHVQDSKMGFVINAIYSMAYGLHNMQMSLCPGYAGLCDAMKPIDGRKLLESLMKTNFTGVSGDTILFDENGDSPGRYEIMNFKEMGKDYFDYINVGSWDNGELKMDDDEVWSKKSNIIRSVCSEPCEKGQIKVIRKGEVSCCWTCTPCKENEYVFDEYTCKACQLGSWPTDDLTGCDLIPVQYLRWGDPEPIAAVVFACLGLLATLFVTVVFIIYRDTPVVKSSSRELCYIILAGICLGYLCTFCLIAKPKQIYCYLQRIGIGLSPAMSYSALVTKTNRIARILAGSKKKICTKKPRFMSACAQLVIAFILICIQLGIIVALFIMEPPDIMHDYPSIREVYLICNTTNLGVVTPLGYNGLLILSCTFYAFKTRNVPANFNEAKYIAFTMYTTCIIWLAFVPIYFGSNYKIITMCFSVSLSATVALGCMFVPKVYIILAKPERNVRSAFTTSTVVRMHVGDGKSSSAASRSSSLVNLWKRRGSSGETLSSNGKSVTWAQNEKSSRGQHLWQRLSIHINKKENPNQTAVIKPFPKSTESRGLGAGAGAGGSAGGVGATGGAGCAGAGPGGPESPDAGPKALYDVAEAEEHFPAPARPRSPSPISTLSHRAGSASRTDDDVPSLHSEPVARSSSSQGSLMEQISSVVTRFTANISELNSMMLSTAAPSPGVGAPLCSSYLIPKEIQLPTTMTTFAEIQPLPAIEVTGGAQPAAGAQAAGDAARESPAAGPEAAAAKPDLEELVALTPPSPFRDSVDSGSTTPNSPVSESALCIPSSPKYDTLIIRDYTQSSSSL

Row | Structure (SMILES) | inhibition at 0.1 µM
1 | CCCn1c(-c2ccc(Nc3ccc(C)nc3)c(Cl)c2)nc2cccc(Cl)c21 [Example 98, [2-Chloro-4-(7-chloro-1-propyl-1H-benzoimidazol-2-yl)-phenyl]-(6-methyl-pyridin-3-yl)-amine] | 103%
2 | CCCn1c(-c2ccc(Nc3ccc(C)nc3)nc2)nc2cccc(Cl)c21 [Example 100, [5-(7-Chloro-1-propyl-1H-benzoimidazol-2-yl)-pyridin-2-yl]-(6-methyl-pyridin-3-yl)-amine] | 100%
3 | CCCn1c(-c2ccc(Nc3ccc(Cl)cc3)nc2)nc2cccc(Cl)c21 [Example 101, (4-Chloro-phenyl)-[5-(7-chloro-1-propyl-1H-benzoimidazol-2-yl)-pyridin-2-yl]-amine] | 95%
4 | CCCn1c(-c2ccc(Nc3ccc(C)cc3)nc2)nc2ccc(F)cc21 [Example 106, [5-(6-Fluoro-1-propyl-1H-benzoimidazol-2-yl)-pyridin-2-yl]-p-tolyl-amine] | 70%
5 | CCCn1c(-c2ccc(Nc3ccc(OC)cc3)nc2)nc2ccc(F)cc21 [Example 107, [5-(6-Fluoro-1-propyl-1H-benzoimidazol-2-yl)-pyridin-2-yl]-(4-methoxy-phenyl)-amine] | 64%
6 | Cc1ccc(Nc2ccc(-c3nc4cccc(Cl)c4n3CC(C)C)cn2)cc1 [Example 108, [5-(7-Chloro-1-isobutyl-1H-benzoimidazol-2-yl)-pyridin-2-yl]-p-tolyl-amine] | 98%
7 | CC(C)Cn1c(-c2ccc(Nc3ccc(Cl)cc3)nc2)nc2cccc(Cl)c21 [Example 109, [5-(7-Chloro-1-isobutyl-1H-benzoimidazol-2-yl)-pyridin-2-yl]-(4-chloro-phenyl)-amine] | 91%
8 | CCCn1c(-c2cnc(Nc3ccc(OC)cc3)c(Cl)c2)nc2ccccc21 [Example 114, [3-Chloro-5-(1-propyl-1H-benzoimidazol-2-yl)-pyridin-2-yl]-(4-methoxy-phenyl)-amine] | 99%
9 | COc1ccc(Nc2ncc(-c3nc4cccc(Cl)c4n3CC(C)C)cc2Cl)cc1 [Example 114b, [3-chloro-5-(7-chloro-1-isobutyl-1H-benzoimidazol-2-yl)-pyridin-2-yl]-(4-methoxy-phenyl)-amine] | 100%
10 | Cc1ccc(Nc2ncc(-c3nc4cccc(Cl)c4n3CC(C)C)cc2Cl)cn1 [Example 114c, [3-chloro-5-(7-chloro-1-isobutyl-1H-benzoimidazol-2-yl)-pyridin-2-yl]-(6-methyl-pyridin-3-yl)-amine] | 111%
11 | CCCn1c(-c2ccc(Nc3ccc(OC)cc3)nc2)nc2cccc(F)c21 [Example 114d, [5-(7-fluoro-1-propyl-1H-benzoimidazol-2-yl)-pyridin-2-yl]-(4-methoxy-phenyl)-amine] | 82%

Results, then the compound that gave them:

Row | inhibition at 0.1 µM | Structure (SMILES)
12 | 98% | CCCn1c(-c2ccc(Nc3ccc(OC)cc3)c(Cl)c2)nc2cccc(Cl)c21 [Example 97, [2-Chloro-4-(7-chloro-1-propyl-1H-benzoimidazol-2-yl)-phenyl]-(4-methoxy-phenyl)-amine]
13 | 99% | CCCn1c(-c2ccc(Nc3ccc(OC)cc3)nc2)nc2cccc(Cl)c21 [Example 99, [5-(7-Chloro-1-propyl-1H-benzoimidazol-2-yl)-pyridin-2-yl]-(4-methoxy-phenyl)-amine]
14 | 90% | CCCn1c(-c2ccc(Nc3ccc(C)nc3)nc2)nc2ccccc21 [Example 102, (6-Methyl-pyridin-3-yl)-[5-(1-propyl-1H-benzoimidazol-2-yl)-pyridin-2-yl]-amine]
15 | 97% | CCCn1c(-c2ccc(Nc3ccc(C)cc3)nc2)nc2cccc(Cl)c21 [Example 103, [5-(7-Chloro-1-propyl-1H-benzoimidazol-2-yl)-pyridin-2-yl]-p-tolyl-amine]
16 | 84% | CCCn1c(-c2ccc(Nc3ccc(Cl)cc3)nc2)nc2ccc(F)cc21 [Example 104, (4-Chloro-phenyl)-[5-(6-fluoro-1-propyl-1H-benzoimidazol-2-yl)-pyridin-2-yl]-amine]
17 | 85% | CCCn1c(-c2ccc(Nc3ccc(C)nc3)nc2)nc2ccc(F)cc21 [Example 105, [5-(6-Fluoro-1-propyl-1H-benzoimidazol-2-yl)-pyridin-2-yl]-(6-methyl-pyridin-3-yl)-amine]
18 | 95% | COc1ccc(Nc2ccc(-c3nc4cccc(Cl)c4n3CC(C)C)cn2)cc1 [Example 110, [5-(7-Chloro-1-isobutyl-1H-benzoimidazol-2-yl)-pyridin-2-yl]-(4-methoxy-phenyl)-amine]
19 | 97% | Cc1ccc(Nc2ccc(-c3nc4cccc(Cl)c4n3CC(C)C)cn2)cn1 [Example 111, [5-(7-Chloro-1-isobutyl-1H-benzoimidazol-2-yl)-pyridin-2-yl]-(6-methyl-pyridin-3-yl)-amine]
20 | 99% | CCCn1c(-c2ccc(Nc3ccc(C)nc3)c(Cl)c2)nc2ccc(F)cc21 [Example 115, [2-Chloro-4-(6-Fluoro-1-propyl-1H-benzoimidazol-2-yl)-phenyl]-(6-methyl-pyridin-3-yl)-amine]
21 | 100% | Cc1ccc(Nc2ccc(-c3nc4cccc(Cl)c4n3CC(C)C)cc2Cl)cn1 [Example 116, [2-Chloro-4-(7-Chloro-1-isobutyl-1H-benzoimidazol-2-yl)-phenyl]-(6-methyl-pyridin-3-yl)-amine]
